Literature values, collected in US20040170683A1, “Tablets comprising modafinil” (priority 2003, published 2004).

Tests used:
[1] = capsules containing the finer particles versus capsules containing the coarser particles
[2] = oral, human trials; median particle size between 30 and 50 microns versus between 80 and 150 microns

## NC(=O)C[S+]([O-])C(c1ccccc1)c1ccccc1 (centres unmarked) [modafinil, Modafinil]
[1]
  dissolution of capsules: substantially faster
[2]
  extent of absorption: greater extent of absorption
